# Test results as given in patent US12508323B2, “Method of treatment of colorectal, breast and lung cancer with metal containing immune agonist complexes” (HANGZHOU XINGAO BIOTECHNOLOGY CO., LTD., priority 2020, dated 2025).
# Assays:
# [1] = system: murine breast cancer cell line 4T1-luc; experiment: Anti-metastasis of murine breast cancer 4T1-luc, in vivo optical imaging; details: 4T1-luc in BALB/C mice, i.p. 10 mg/kg (nanobody 200 μg/mouse) once a day, sites of metastasis
# Method: Specific pathogen free (SPF)-grade BALB/C male mice, aged 7-8 weeks and weighing 20-22 g, were purchased from Shanghai Slac Laboratory Animal Co., Ltd (Laboratory animal quality certificate number: SCXK (Shanghai)2007-0005.
# Mice were injected intraperitoneally with the immune agonist complex or MncGAMP with a dose of 10 mg/kg, or each injected intraperitoneally with 200 μg of the nanobody.
# Administration route: intraperitoneal injection.
# Frequency: once a day for consecutive 21 days.
# Used herein was murine breast cancer cell line 4T1-luc (luciferase labeled tumor cells), which was provided by medical department of Zhejiang University School. The 4T1-luc cell line in BALB/C mice had similar growth and metastatic properties to breast tumors in humans, which was an animal model for […] breast cancer in humans. The 4T1-luc cell line spontaneously produced highly metastatic tumors that metastasize to the lung, liver, lymph nodes, and brain, while forming the primary site at the injection site. Luciferase was a general term for a class of enzymes in living organisms that catalyze the oxidative luminescence of luciferin or firefly aldehyde, which was derived from organisms naturally capable of luminescence.
# Cancer cells were cultured, passaged, collected at the logarithmic phase of cells, and prepared into a cell suspension at a concentration of (1.0×10^7) per ml. Mice were injected with 0.2 ml of the cell suspension at the axilla of the right forelimb (2.0×10^6 cells/each), and were injected with drugs the day after inoculation with breast cancer cells. […]
# Metastasis of murine breast cancer in mice was detected using a small animal in vivo optical imaging system (Perkin Elmer, IVIS Lumina XRMS Series III) on days 5, 10, 20, and 30 after drug administration, respectively, which was done at Shanghai Medical College of Fudan University.
# [2] = system: coronavirus (ATCC VR-841); experiment: Inhibition of coronavirus replication in PBMCs (fluorescence quantitative RT-PCR); assay type: cell-based; details: PBMC, 504 h, 100 μg/mL drug, 10 μL virus, after three weeks, six samples per group, read-out: Average inhibition rate of coronavirus (%)
# Description: Peripheral blood mononuclear cells (PBMCs) used herein was purchased from Shanghai Saili biotechnology Co., Ltd, which mainly included lymphocytes (T cells/B cells), monocytes, macrophages, and dendritic cells. Most of PBMCs were lymphocytes. PBMCs were normal primary cells, which belonged to a mixed system.
# The virus strain used herein was coronavirus (ATCC VR-841), which was suitable for laboratory use and purchased from ATCC company. It was a bronchopneumonia coronavirus. Virus experiments in this study were performed by virus laboratory of American Animals Inc.
# The cultured PBMCs were divided into seven groups (six samples in each group), namely, group A: negative control group (PBMC); group B, PBMC+cGAMP; group C, PBMC+MncGAMP; group D, PBMC+complex VIII; group E, PBMC+complex I; group F, PBMC+complex II; and group G, PBMC+complex III. Except for group A, which was used as a control group without drug addition, all other groups were respectively added with 100 μg/mL of the corresponding drug. Each cell sample was added with 10 μL of virus, and the antiviral status of the different immune agonist complexes were determined after three weeks. The inhibition rate of virus was selected as an evaluation index. The activity titer of the virus was detected by fluorescence quantitative RT-PCR.
# TREM2 = TREM2 expression in brain tissues of AD mice; assay type: in vivo; details: 10 mg/kg i.p., 60 days of administration
# Description: ELISA kits were purchased from Cloud Clone. Flow cytometry nanobodies were purchased from eBiosciences. RT-PCR reagents were purchased from Takara. Immune fluorescence and immune histochemistry nanobodies were purchased from Abcam. Other reagents were purchased from Sigma-Aldrich. Primer synthesis was done by Shanghai Biotechnology Co. Laser confocal microscope was purchased from Leica (Germany). 7500 quantitative PCR instrument was purchased from Applied Biosystems ABI (USA). Light microscope was purchased from Leica (Germany). Enzyme marker was purchased from Hangzhou Aosheng Company. Attune flow cytometer was purchased from Thermo Fisher Scientific. RT-PCR in vitro TREM2 content was determined, and the TREM2 primer sequences were as follows:
# Whether mRNA levels of TREM2 in brain tissues of mice were altered after administration of the immune agonist and complexes thereof was determined.
# [3] = system: pro-inflammatory factors IL-1β and TNF-α; experiment: Pro-inflammatory factors in brain tissues of AD mice (ELISA); assay type: in vivo; details: 10 mg/kg i.p., two months of administration
# Method: To explore the effect of the above immune agonists and complexes thereof on neuroinflammation in the brain of AD mice, the content of pro-inflammatory factors in brain tissues of AD mice was determined by ELISA method. The content of pro-inflammatory factors IL-1β and TNF-α in brain tissues of AD mice were measured respectively.
# Fresh brain tissues of mice were taken and weighed, and the content of inflammatory factors IL-1β and TNF-α in brain tissues was determined by using the Cloud Clone ELISA kit. […] Therefore, the immune agonist-brain-targeted nanocarrier complexes were able to eliminate the chronic neuroinflammation present in the course of AD in mice.
compound,measurement,setting,value
"Nc1nc(=O)c2ncn(C3OC4COP(=O)(O)OC5C(COP(=O)(O)OC3C4O)OC(n3cnc4c(N)ncnc43)C5O)c2[nH]1 (stereo not shown) [cGAMP, 2′3′-cGAMP]","Metastasis of breast cancer, Day 5",[1]; day 5 after drug administration,No
same,"Metastasis of breast cancer, Day 10",[1]; day 10 after drug administration,No
same,"Metastasis of breast cancer, Day 20",[1]; day 20 after drug administration,No
same,inhibition at 100 µg/mL,[2],25 ± 4%
same,TREM2,TREM2,55.38 ± 0.27 pg/mg
same,IL-1β,[3],46.18 ± 0.09 pg/mg
same,TNF-α,[3],35.52 ± 0.35 pg/mg
